{"source": "patent US10092003B2", "about": "“Insect control device and associated methods” (Novel Textiles & Treatments LLC, priority 2014, dated 2018)", "assay": "Transfluthrin evaporation / release rate from loaded fabric substrates (aging, acetone extraction, GC-MS)", "assay_type": "physicochemical", "excerpt": "In some cases, release rates of the pyrethroids may range between about 0.1 milligrams per hour and about 3 milligrams per hour, as measured by gas chromatography mass spectroscopy (GC-MS). In some embodiments, the release rate may range between about 0.1 milligrams per hour and about 3 milligrams per hour, between about 0.5 milligrams per hour and about 3 milligrams per hour, or between about 1 milligrams per hour and about 3 milligrams per hour for an overall device of the invention, as measured by GC-MS. Other release rates are also possible. The release rate of the pyrethroid may be determined, for example, by immersing a loaded substrate in a suitable solvent (e.g., acetone) and sonicating. The substrate may then be rinsed and the solvent containing the released pyrethroid is collected. […]\nFabric samples comprised of cellulose or glass were prepared with Transfluthrin using either a wet application, or a wet application followed by a dry application, as described herein. […] The amount of Transfluthrin in the extracted sample was measured using a Restel Rtx®-5MS gas chromatography—mass spectrometry column. […] Evaporation rates, as determined by solvent extraction of Transfluthrin and followed by GC-MS as described previously, for cellulose fabric wet application and wet-and-dry application samples (Samples A and B in Table 1) are plotted in FIG. 3A and FIG. 3B, respectively. […]"}
{"smiles": "CC1(C)[C@H](C=C(Cl)Cl)[C@H]1C(=O)OCc1c(F)c(F)cc(F)c1F", "note": "[transfluthrin, Transfluthrin]", "values": [{"measurement": "evaporation rate", "setting": "combination of particle size distributions on 5″×4″ square fabric of cellulose", "value": 0.5, "unit": "mg per 21 days"}, {"measurement": "evaporation rate", "setting": "on an equivalent 20″×20″ cellulose fabric", "value": 10, "unit": "mg per 21 days"}]}
